Test results published in ChEMBL document CHEMBL4354792, “Emerging modes-of-action in drug discovery” (Medchemcomm, 2019).

Key:
Ribosome = assay: Inhibition of 80s ribosome in CHOK1 cells assessed as reduction in PL-tagged PCSK9 expression incubated for over night by EFC kit method; assay type: cell-based; conditions: Cricetulus griseus, CHO-K1
[1] = Binding affinity to MMTV-PyMT mouse MALAT1 long non-coding RNA by FRET assay

COc1ccc(CCC(=O)N(c2nccc3ccccc23)[C@@H]2CCCNC2)cc1
IC50 (Ribosome): 4.8 µM

N=C(NC1CCN(Cc2ccccc2)CC1)c1ccc(-c2ccc(-c3ccc(C(=N)NC4CCN(Cc5ccccc5)CC4)cc3)o2)cc1
IC50 [1]: 1.3 to 2.5 µM
